From EP0398231B1, “Nucleoside analogs” (INSTITUTE OF ORGANIC CHEMISTRY AND BIOCHEMISTRY OF THE …, priority 1989, dated 1990)
In brackets after ≈: the same amount, converted by molar mass. Counter-ions that a name gives are not always drawn. Like-named read-outs stand apart in the source and are kept apart here.

Assays:
[1] = system: Herpes simplex virus - 2; assay: Survival of mice inoculated with Herpes simplex virus-2, 21 day protocol; type: in vivo
Description: A preferred example of one of these compounds, known as (S)-HPMPA (Formula 4') was disclosed by DeClercq, et al., in Nature, 1986, 323, pp. 464-467 and earlier by Holy, et al., Nucleic Acids Research, Symposium Series No. 14, 1984, pp. 277-278. Phosphonate compounds which are HPMPA analogs are described in South African Patent 1987/8607. […] In a 21 day protocol 30% of a group of animals treated i.p. with 50 mg/kg/day of (S)-HPMPA survived. [drawing 4]

[2] = system: R-MuLV; assay: UV-XC plaque assay in SC-1 cells, R-MuLV; type: cell-based, murine leukemia virus
Description: (§1) The compounds were evaluated for antiviral activity against murine leukemia virus (MuLV) strains using the UV-XC plaque assay (Rowe, et al., Virology, 42:1136, 1970).
(§2) The MuLV strains were grown in feral mouse cells (SC-1) and used for antiviral tests using the UV-XC plaque assay. Briefly, SC-1 cells are grown as monolayers in 4-well tissue culture plates and inoculated with approximately 50-100 plaque forming units of MuLV in 0.5 ml of 5% EMEM containing 20 µg/ml DEAE/Dextran. After 1 hour adsorbtion, the inoculum is removed and 5 ml of 5% EMEM containing three-fold dilutions of the appropriate drug are added. Five days later, the cultures are UV-irradiated with an ultraviolet lamp and rat XC sarcoma cells are added to the cultures. Three-four days after UV-irradiation, the cell cultures are stained with Giemsa stain and the plaques are enumerated. Antiviral activity is expressed in terms of the reduction in the mean number of UX-XC plaques counted in the drug treated, virus-infected cultures compared with mean number of plaques counted in untreated, virus-infected control cultures.

[3] = system: HIV (LAV strain); assay: HIV in vitro assay in CEM cells, p-24 gag protein ELISA; type: cell-based
Description: The HIV in vitro assay described as follows was used: The anti-HIV/LAV activity is measured in cultures of CEM-F cells.

[4] = system: HSV-1; assay: Plaque reduction assay in vero cells, HSV-1; type: cell-based, Herpes simplex virus; conditions: Human alphaherpesvirus 1, 48 hour incubation, read-out: ID50 HVS-1
Description: (§3) Herpes simplex virus (HSV) strains were grown and titered at 37°C in vero cells (African Green Monkey Kidney cells) and used for virus work before the tenth passage.
(§4) Cells were grown and maintained in Earle's Minimum Essential Medium (EMEM), Gibco Laboratories, supplemented with 0.75% sodium bicarbonate, 2mM 1-glutamine, Pen-strep. and 5-10% fetal calf serum.
(§5) The titer of HSV strains is determined by a plaque titration method (Roizman and Roane, Virology, 115:75-79, 1961). Tissue culture 24-well petri dishes are seeded with cells and used for assays when approximately 75% monolayer. Volumes (0.1ml) of logarithmic dilutions of the virus strain are inoculated onto each of triplicate wells, and absorbed for one hour with intermittent shaking. […] The number of plaques is counted, the triplicate is averaged, and the number of plaque-forming units per ml is calculated.
(§6) The compounds are tested for activity against the herpes simplex stains using a stock solution of each compound freshly prepared. […] The antiviral efficacy of each compound is determined using the plaque reduction assay described above. […] After a 48-hour incubation period, at 37°C in a 5% CO2 atmosphere, the overlay medium is removed, the cells are stained as described above, and plaques are counted. The counts of triplicate wells are averaged, and the number of plaques in the presence of each drug dilution are calculated. […]

[5] = system: HSV-2; assay: Plaque reduction assay in vero cells, HSV-2; type: cell-based, Herpes simplex virus; conditions: Human alphaherpesvirus 2, 48 hour incubation, read-out: ID50 HVS-2
Description: as §3, §4, §5, §6

[6] = system: Herpes simplex virus-1 (HL-34 strain); assay: HSV-1 systemic infection in mice, survival at 21 days; type: in vivo; conditions: i.p.; for Survival: BID for 5 consecutive days, from 3 hours post-infection, 21 days
Description: Groups of ten mice were inoculated intraperitoneally with from 200 to 600 PFU/0.2ml of Herpes simplex virus-1 (HL-34 strain). Different doses of test compound were administered to separate groups of animals on a BID basis for five consecutive days commencing three hours after inoculation. Treatment was by an intraperitoneal route. The experiment was teminated 21 days post inoculation and the number of survivals in each group was counted. The mean survival time (MST, days) was calculated.

[7] = system: MuLV; assay: UV-XC plaque assay in SC-1 cells, MuLV; type: cell-based, murine leukemia virus; conditions: Virus MuLV, Cell-line SC-1; read-out: ID50 (the source's name)
Description: as §1, §2
(§7) This compound was evaluated for anti-retroviral activity by the methods described in Examples 43 and 44. AZT controls were run simultaneously to confirm the validity of the test.

[8] = system: HIV; assay: HIV assay in MT-4 cells; type: cell-based; conditions: Virus HIV, Cell-line MT-4; read-out: ID50 (the source's name)
Description: as §7

[9] = system: SC-1; type: cell-based; conditions: mouse, sc-1 cells
[10] = Murine leukemia virus, SC1, UV-XC plaque assay, SC-1 cells, read-out: ID50 R-MuLV

Q: With `Nc1ncnc2c1ncn2C[C@@H](CO)OCP(=O)(O)O` [(S)-HPMPA] as the compound, how does the “activity in mice inoculated with Herpes simplex virus - 2 (in words)” value ([1]; in applicant's hands) read?
A: only slightly active

Q: What about the survived ([1]; mice inoculated with Herpes simplex virus - 2, i.p. 50 mg/kg/day, 21 day protocol) of the same compound?
A: 30%

Q: What does the source list for `Cc1cn(C2C=CC(OCP(=O)(O)O)O2)c(=O)[nH]c1=O` [Compound 25, 1-[2,3-Dideoxy-2,3-didehydro-4-phosphonomethoxy-beta-D-erythrofuranosyl]thymine disodium salt]?
A: IC50 [2, 10]: 0.3 µg/mL; IC50 ([3]; Human immunodeficiency virus 1, CCRF-CEM, 192 h, CEM-F cells, 8 days, p-24 gag protein ELISA, read-out: ID50 HIV): 1.8 µg/mL

Q: `Nc1nc2c(ncn2COCOCP(=O)(O)O)c(=O)[nH]1` [Compound 8, 9-[3-(Phosphonomethoxy)methoxymethyl]guanine disodium salt] was tested. Which IC50 [4] did it give?
A: 2.6 µg/mL

Q: And the IC50 [5]?
A: 11 µg/mL

Q: And the Survival ([6]; Dose 10 mg/kg/d)?
A: 3/10

Q: What about the Survival ([6]; Dose 100 mg/kg/d) of the same compound?
A: 9/10

Q: What about the Survival ([6]; Dose 300 mg/kg/d) of the same compound?
A: 10/10

Q: And the “activity compared with ACV in vivo (in words)” value ([6]; HSV-1 systemic infection in mice)?
A: equally as active as ACV

Q: For `Nc1nc2c(ncn2COCCO)c(=O)[nH]1` [ACV, Acyclovir, reference compound], which IC50 [4] is on record?
A: 0.5 µg/mL (≈ 2.22 µM)

Q: And the IC50 [5]?
A: 0.5 µg/mL (≈ 2.22 µM)

Q: What about the Survival ([6]; Dose 100 mg/kg/d) of the same compound?
A: 7/10

Q: And the Survival ([6]; Dose 200 mg/kg/d)?
A: 6/7

Q: With “9-[2,3-Dideoxy-2,3-didehydro-4-β-phosphonomethoxy-β-D-erythrofuranosyl]adenine ammonium salt [Example 50]” as the compound, how does the IC50 ([2]; Virus MuLV-R, Cell-line SC-1, read-out: ID50 (the source's name)) read?
A: 10 nM

Q: And the IC50 ([3]; Virus HIV, Cell-line CEM, read-out: ID50 (the source's name))?
A: 45000 nM

Q: And the IC50 [7]?
A: < 100 nM

Q: And the IC50 [8]?
A: 1500 nM

Q: What about the CC50 [9] of the same compound?
A: > 100000 nM

Q: What does the source list for `Cc1cn([C@H]2C[C@H](N=[N+]=[N-])[C@@H](CO)O2)c(=O)[nH]c1=O` [AZT, reference compound]?
A: IC50 [2, 10]: 0.05 µg/mL; IC50 ([3]; Human immunodeficiency virus 1, CCRF-CEM, 192 h, read-out: ID50 HIV): 0.1 µg/mL
